Reference: patent US11142515B2, “Pyrazolyl-ureas as kinase inhibitors” (RESPIVERT LIMITED, priority 2014, dated 2021)

Key:
p38MAPKγ (MAPK12) = target: T1, p38MAPKγ (MAPK12) (Homo sapiens, UniProt P53778); experiment: p38 MAPKγ enzyme inhibition (Z-LYTE FRET); assay type: biochemical; conditions: Table 2B, unit inferred; read-out: p38 MAPKγ (Enzyme Profile)
T1 construct: purchased Life Technologies
T1 sequence (P53778 1-367): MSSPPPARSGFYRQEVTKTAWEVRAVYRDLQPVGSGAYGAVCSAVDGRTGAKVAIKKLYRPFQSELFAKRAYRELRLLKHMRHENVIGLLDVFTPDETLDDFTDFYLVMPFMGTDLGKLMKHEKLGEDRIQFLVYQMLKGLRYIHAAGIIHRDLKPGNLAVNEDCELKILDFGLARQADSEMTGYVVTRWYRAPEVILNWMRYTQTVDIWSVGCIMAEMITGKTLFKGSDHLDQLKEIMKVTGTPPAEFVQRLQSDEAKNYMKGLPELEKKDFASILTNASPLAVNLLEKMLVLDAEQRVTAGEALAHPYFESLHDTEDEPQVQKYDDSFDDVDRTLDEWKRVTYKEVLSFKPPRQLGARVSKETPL
How it was run: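 Z-LYTE read-out: after 1 h protease development, only non-phosphorylated peptide is cleaved, and the donor/acceptor (coumarin/fluorescein) ratio reports phosphorylation. Beforehand, enzyme and compound (stock concentrations 0.0012–40 μg/mL) were preincubated 2 h at RT, then the kinase reaction ran 1 h at RT with peptide and ATP (8 μM and 400 μM stocks).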

[1] = target: T2, p38 MAPKα isoform (MAPK14) (Homo sapiens, UniProt Q16539); experiment: p38 MAPKα enzyme inhibition (Z-LYTE FRET); assay type: biochemical; conditions: Table 2B, unit inferred; read-out: p38 MAPKα (Enzyme Profile)
T2 construct: purchased Life Technologies
T2 sequence (Q16539 whole entry, canonical isoform): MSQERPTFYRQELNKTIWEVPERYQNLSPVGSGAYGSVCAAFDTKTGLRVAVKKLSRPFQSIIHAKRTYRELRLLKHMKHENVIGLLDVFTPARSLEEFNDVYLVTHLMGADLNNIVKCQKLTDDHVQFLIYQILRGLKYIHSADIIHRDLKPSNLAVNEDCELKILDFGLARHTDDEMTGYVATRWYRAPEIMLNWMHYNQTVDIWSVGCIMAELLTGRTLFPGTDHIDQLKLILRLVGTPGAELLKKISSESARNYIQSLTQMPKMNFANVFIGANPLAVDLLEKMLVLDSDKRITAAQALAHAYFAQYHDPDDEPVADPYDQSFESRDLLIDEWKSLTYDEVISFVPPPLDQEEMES
How it was run: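 Recombinant human MAPK14 (40 ng/mL stock) was preincubated 2 h at RT with compound (stock dilutions 0.0012-40 μg/mL). The Z-LYTE FRET read-out used a MAPKAP-K2-derived peptide, and protease development for 1 h cleaved only non-phosphorylated peptide. Phosphorylation was calculated from the coumarin/fluorescein emission ratio.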

Row | SMILES | IC50 (p38MAPKγ (MAPK12)) | IC50 [1]
1 | CCc1ccc(-n2nc(C(C)(C)C)cc2NC(=O)Nc2ccc(OCc3ccnc(Nc4cnc(CO)cn4)c3)c3ccccc23)cc1 [Example 164, 1-(3-(tert-butyl)-1-(4-ethylphenyl)-1H-pyrazol-5-yl)-3-(4-((2-((5-(hydroxymethyl)pyrazin-2-yl)amino)pyridin-4-yl)methoxy)naphthalen-1-yl) urea] | 2340 nM | 6.8 nM
2 | Cc1ccc(-n2nc(C(C)(C)C)cc2NC(=O)Nc2ccc(OCc3ccnc(Nc4cncc(OCC(C)C)n4)c3)c3ccccc23)cc1 [Example 122, 1-(3-(tert-butyl)-1-(p-tolyl)-1H-pyrazol-5-yl)-3-(4-((2-((6-isobutoxypyrazin-2-yl)amino)pyridin-4-yl)methoxy)naphthalen-1-yl) urea] | 8740 nM | 2780 nM
3 | COC1CCN(C(=O)c2cnc(Nc3cc(COc4ccc(NC(=O)Nc5cc(C(C)(C)C)nn5-c5cccc(C)c5)c5ccccc45)ccn3)cn2)CC1 [Example 206, 1-(3-(tert-butyl)-1-(m-tolyl)-1H-pyrazol-5-yl)-3-(4-((2-((5-(4-methoxypiperidine-1-carbonyl)pyrazin-2-yl)amino)pyridin-4-yl)methoxy)naphthalen-1-yl)urea] | 517 nM | 22 nM
4 | COCCCc1cncc(Nc2cc(COc3ccc(NC(=O)Nc4cc(C(C)(C)C)nn4-c4ccc(C)cc4)c4ccccc34)ccn2)n1 [Example 153, 1-(3-(tert-butyl)-1-(p-tolyl)-1H-pyrazol-5-yl)-3-(4-((2-((6-(3-methoxypropyl)pyrazin-2-yl)amino)pyridin-4-yl)methoxy)naphthalen-1-yl)urea] | 77 nM | 20 nM
5 | Cc1ccc(-n2nc(C(C)(C)C)cc2NC(=O)Nc2ccc(OCc3ccnc(Nc4cnc(C)c(C5CC5)n4)c3)c3ccccc23)cc1 [Example 150, 1-(3-(tert-butyl)-1-(p-tolyl)-1H-pyrazol-5-yl)-3-(4-((2-((6-cyclopropyl-5-methyl-pyrazin-2-yl)amino)pyridin-4-yl)methoxy)naphthalen-1-yl)urea] | 229 nM | 25 nM
6 | COc1ccc(-n2nc(C(C)(C)C)cc2NC(=O)Nc2ccc(OCc3ccnc(Nc4cnc(C(=O)N5CCCC5)cn4)c3)c3ccccc23)cc1F [Example 228, 1-(3-(tert-butyl)-1-(3-fluoro-4-methoxyphenyl)-1H-pyrazol-5-yl)-3-(4-((2-((5-(pyrrolidine-1-carbonyl)pyrazin-2-yl)amino)pyridin-4-yl)methoxy)naphthalen-1-yl)urea] | > 13700 nM | 35 nM
7 | COc1cc(-n2nc(C(C)(C)C)cc2NC(=O)Nc2ccc(OCc3ccnc(Nc4cnc(C(=O)N5CCCC5)cn4)c3)c3ccccc23)ccc1C [Example 226, 1-(3-(tert-butyl)-1-(3-methoxy-4-methylphenyl)-1H-pyrazol-5-yl)-3-(4-((2-((5-(pyrrolidine-1-carbonyl)pyrazin-2-yl)amino)pyridin-4-yl)methoxy)naphthalen-1-yl)urea] | > 13800 nM | 35 nM
8 | Cc1ccc(-n2nc(C(C)(C)C)cc2NC(=O)Nc2ccc(OCc3ccnc(Nc4cnc5c(n4)CCCC5)c3)c3ccccc23)cc1 [Example 138, 1-(3-(tert-butyl)-1-(p-tolyl)-1H-pyrazol-5-yl)-3-(4-((2-((5,6,7,8-tetrahydro-quinoxalin-2-yl)amino)pyridin-4-yl)methoxy)naphthalen-1-yl)urea] | > 15300 nM | 29 nM
9 | COc1cncc(Nc2cc(COc3ccc(NC(=O)Nc4cc(C(C)(C)C)nn4-c4csc(C)c4)c4ccccc34)ccn2)n1 [Example 113, 1-(3-(tert-butyl)-1-(5-methylthiophen-3-yl)-1H-pyrazol-5-yl)-3-(4-((2-((6-methoxypyrazin-2-yl)amino)pyridin-4-yl)methoxy)naphthalen-1-yl) urea] | 3200 nM | 37 nM
10 | CC(C)(C)c1cc(NC(=O)Nc2ccc(OCc3ccnc(Nc4cnccn4)c3)c3ccccc23)n(-c2ccccc2)n1 [Example 75] | 179 nM | 17 nM
11 | COc1ccc(-n2nc(C(C)(C)C)cc2NC(=O)Nc2ccc(OCc3ccnc(Nc4cnc(CO)cn4)c3)c3ccccc23)cn1 [Example 177, 1-(3-(tert-butyl)-1-(6-methoxypyridin-3-yl)-1H-pyrazol-5-yl)-3-(4-((2-((5-(hydroxymethyl)pyrazin-2-yl)amino)pyridin-4-yl)methoxy)naphthalen-1-yl) urea] | 81 nM | 5.2 nM
12 | Cc1ccc(-n2nc(C(C)(C)C)cc2NC(=O)Nc2ccc(OCc3ccnc(Nc4cnc(C(=O)N5CC[C@@H](O)C5)cn4)c3)c3ccccc23)cc1 [Example 162, (R)-1-(3-(tert-butyl)-1-(p-tolyl)-1H-pyrazol-5-yl)-3-(4-((2-((5-(3-hydroxypyrrolidine-1-carbonyl)pyrazin-2-yl)amino)pyridin-4-yl)methoxy)naphthalen-1-yl)urea] | 37 nM | 4.7 nM
13 | CCc1cncc(Nc2cc(COc3ccc(NC(=O)Nc4cc(C(C)(C)C)nn4-c4cccc(C)c4)c4ccccc34)ccn2)n1 [Example 141, 1-(3-(tert-butyl)-1-(m-tolyl)-1H-pyrazol-5-yl)-3-(4-((2-((6-ethylpyrazin-2-yl)amino)pyridin-4-yl)methoxy)naphthalen-1-yl)urea] | 438 nM | 18 nM
14 | COCc1cccc(-n2nc(C(C)(C)C)cc2NC(=O)Nc2ccc(OCc3ccnc(Nc4cnccn4)c3)c3ccccc23)c1 [Example 166, 1-(3-(tert-butyl)-1-(3-(methoxymethyl)phenyl)-1H-pyrazol-5-yl)-3-(4-((2-(pyrazin-2-ylamino)pyridin-4-yl)methoxy)naphthalen-1-yl)urea] | 52 nM | 6.2 nM
15 | COCCc1cncc(Nc2cc(COc3ccc(NC(=O)Nc4cc(C(C)(C)C)nn4-c4ccc(C)cc4)c4ccccc34)ccn2)n1 [Example 154, 1-(3-(tert-butyl)-1-(p-tolyl)-1H-pyrazol-5-yl)-3-(4-((2-((6-(2-methoxyethyl)pyrazin-2-yl)amino)pyridin-4-yl)methoxy)naphthalen-1-yl)urea] | 49 nM | 10 nM
16 | CCc1nc(Nc2cc(COc3ccc(NC(=O)Nc4cc(C(C)(C)C)nn4-c4ccc(C)cc4)c4ccccc34)ccn2)cnc1C [Example 143, 1-(3-(tert-butyl)-1-(p-tolyl)-1H-pyrazol-5-yl)-3-(4-((2-((6-ethyl-5-methylpyrazin-2-yl)amino)pyridin-4-yl)methoxy)naphthalen-1-yl) urea] | 211 nM | 19 nM
17 | CO[C@H]1CCN(C(=O)c2cnc(Nc3cc(COc4ccc(NC(=O)Nc5cc(C(C)(C)C)nn5-c5cccc(C)c5)c5ccccc45)ccn3)cn2)C1 [Example 200, (S)-1-(3-(tert-butyl)-1-(m-tolyl)-1H-pyrazol-5-yl)-3-(4-((2-((5-(3-methoxy-pyrrolidine-1-carbonyl)pyrazin-2-yl)amino)pyridin-4-yl)methoxy)naphthalen-1-yl)urea] | 1240 nM | 13 nM
18 | COCc1cnc(Nc2cc(COc3ccc(NC(=O)Nc4cc(C(C)(C)C)nn4-c4ccc(C)cc4)c4ccccc34)ccn2)cn1 [Example 190, 1-(3-(tert-butyl)-1-(p-tolyl)-1H-pyrazol-5-yl)-3-(4-((2-((5-(methoxymethyl)pyrazin-2-yl)amino)pyridin-4-yl)methoxy)naphthalen-1-yl) urea] | 232 nM | 23 nM
19 | COc1cncc(Nc2cc(COc3ccc(NC(=O)Nc4cc(C(C)(C)C)nn4-c4ccc(CO)cc4)c4ccccc34)ccn2)n1 [Example 110, 1-(3-(tert-butyl)-1-(4-(hydroxymethyl)phenyl)-1H-pyrazol-5-yl)-3-(4-((2-((6-methoxypyrazin-2-yl)amino)pyridin-4-yl)methoxy)naphthalen-1-yl) urea] | 23 nM | 1.6 nM
20 | Cc1cc(-n2nc(C(C)(C)C)cc2NC(=O)Nc2ccc(OCc3ccnc(Nc4cncc(N(C)C)n4)c3)c3ccccc23)cs1 [Example 112, 1-(3-(tert-butyl)-1-(5-methylthiophen-3-yl)-1H-pyrazol-5-yl)-3-(4-((2-((6-(dimethylamino)pyrazin-2-yl)amino)pyridin-4-yl)methoxy)naphthalen-1-yl) urea] | 277 nM | 43 nM
21 | Cc1cc(C)cc(-n2nc(C(C)(C)C)cc2NC(=O)Nc2ccc(OCc3ccnc(Nc4cnc(C(=O)N5CCCC5)cn4)c3)c3ccccc23)c1 [Example 218, 1-(3-(tert-butyl)-1-(3,5-dimethylphenyl)-1H-pyrazol-5-yl)-3-(4-((2-((5-(pyrrolidine-1-carbonyl)pyrazin-2-yl)amino)pyridin-4-yl)methoxy)naphthalen-1-yl)urea] | > 14100 nM | 28 nM
22 | Cc1ccc(-n2nc(C(C)(C)C)cc2NC(=O)Nc2ccc(OCc3ccnc(Nc4cnc(C(=O)N5C[C@@H](C)O[C@@H](C)C5)cn4)c3)c3ccccc23)cc1 [Example 214, 1-(3-(tert-butyl)-1-(p-tolyl)-1H-pyrazol-5-yl)-3-(4-((2-((5-((2S,6R)-2,6-dimethyl-morpholine-4-carbonyl)pyrazin-2-yl)amino)pyridin-4-yl)methoxy)naphthalen-1-yl)urea] | 1930 nM | 31 nM
